Source: article PMC9841576, “Characterisation of C101248: A novel selective THIK-1 channel inhibitor for the modulation of microglial NLRP3-inflammasome” (Neuropharmacology, 2023)
pIC50: −log10 of the molar value.

Assays:
CNS PK study in rats = type: in vivo; settings: Sprague Dawley, rat, brain (unbound) / plasma (unbound), 10 or 30 mg/kg oral, 1, 2 or 4 h post dose, read-out: Kpu,u
Method: In CNS PK studies, rodents (C57BL/6 mice or Sprague Dawley rats) were administered C101248 by oral gavage at 10 or 30 mg/kg. At specified timepoints post dose (0.5, 1, 2 or 4 h), blood samples were collected and processed to plasma (centrifugation at 5000 rpm, 4 °C for 10 min). Immediately following blood withdrawal, cerebrospinal fluid (CSF) samples were collected from the cisterna magna, whole body perfusion was conducted, and brain samples were collected and weighed. Samples were stored frozen at −80 ± 10 °C until analysis. Plasma, CSF, and brain samples were analysed using a fit for purpose bioanalytical method (LC-MS/MS) against a calibration curve containing QC samples. Brain:plasma and CSF:plasma were calculated based on brain concentration/plasma concentration at the same timepoint. Unbound partition coefficient (Kpu,u) values were calculated based on unbound brain concentration/unbound plasma concentration at the same timepoint. Unbound concentrations were derived by adjusting plasma concentrations for the fraction unbound in plasma based on in vitro plasma protein binging (PPB) values and brain concentrations for the unbound fraction in brain tissue based on in vitro brain tissue binding (BTB) values.

[1] = system: NLRP3-dependent release of IL-1β; assay: LPS/ATP-induced IL-1β release from differentiated THP1 cells overexpressing human THIK-1; type: cell-based; settings: Homo sapiens, THP-1; THIK-1 overexpressing differentiated THP1 cells, LPS/ATP; read-out: IC50, inhibition of IL-1β release
Method: THP1 cells, obtained from ATCC, are monocytes isolated from peripheral blood of a leukaemia patient. THP1 cells were grown in RPMI 1640 supplemented with 10% fetal bovine serum (FBS, Hyclone), 1% PenStrep (Invitrogen), and 1% GlutaMax (Invitrogen), and 0.05 mM of 2-mercaptoethanol. To overexpress human THIK-1, THP1 cells were differentiated with 100 ng/ml PMA for 24 h prior to transfection with THIK-1 mRNA synthesized as described in the supplementary material. Cell suspensions (2.5 × 10^6 cells in […]) in the presence of 200 μg/ml mRNA were electroporated with the MaxCyte (STX instrument) in an OC-25 MaxCyte Electroporation cassette using manufacturer settings for THP1 cells. Cell suspensions were transferred to a 6-well plate and allowed to recover for 20 min at 37 °C. Cells were seeded into 384-well plates (10,000 cells/well) for thallium flux assays or 96-well plates (50,000 cells/well) for inflammasome assays the following day. Overexpressing and mock-transfected cells were primed with 100 ng/ml of LPS for 3.5 h prior to addition of compounds 30 min before stimulation with 5 mM ATP. Supernatants were collected 2 h after addition of ATP and stored at −20 °C until the detection of IL-1β.
IL-1β from culture supernatants was measured with DuoSet ELISA kit (R&D Systems) following the manufacturer instructions.

[2] = biological target: Transporter, Norepinephrine (NET) (Homo sapiens, UniProt P23975); assay: Promiscuity screening panel, radiometric binding; settings: read-out: % inhibition at 10 µM (n=2)
Method: (§1) C101248 was further profiled in a promiscuity screening panel, using radiometric binding assays, against a selection of 18 diverse targets at 10 μM (Supplementary Table 2).
(§2) Supplementary Table 2: Promiscuity screening panel data for C101248. Compound was screened at 10 µM, in duplicate, using radiometric binding assays

[3] = biological target: Transporter, Serotonin (5-Hydroxytryptamine) (SERT) (Homo sapiens, UniProt P31645); assay: Promiscuity screening panel, radiometric binding; settings: read-out: % inhibition at 10 µM (n=2)
Transporter, Serotonin (5-Hydroxytryptamine) (SERT), sequence (P31645 whole entry): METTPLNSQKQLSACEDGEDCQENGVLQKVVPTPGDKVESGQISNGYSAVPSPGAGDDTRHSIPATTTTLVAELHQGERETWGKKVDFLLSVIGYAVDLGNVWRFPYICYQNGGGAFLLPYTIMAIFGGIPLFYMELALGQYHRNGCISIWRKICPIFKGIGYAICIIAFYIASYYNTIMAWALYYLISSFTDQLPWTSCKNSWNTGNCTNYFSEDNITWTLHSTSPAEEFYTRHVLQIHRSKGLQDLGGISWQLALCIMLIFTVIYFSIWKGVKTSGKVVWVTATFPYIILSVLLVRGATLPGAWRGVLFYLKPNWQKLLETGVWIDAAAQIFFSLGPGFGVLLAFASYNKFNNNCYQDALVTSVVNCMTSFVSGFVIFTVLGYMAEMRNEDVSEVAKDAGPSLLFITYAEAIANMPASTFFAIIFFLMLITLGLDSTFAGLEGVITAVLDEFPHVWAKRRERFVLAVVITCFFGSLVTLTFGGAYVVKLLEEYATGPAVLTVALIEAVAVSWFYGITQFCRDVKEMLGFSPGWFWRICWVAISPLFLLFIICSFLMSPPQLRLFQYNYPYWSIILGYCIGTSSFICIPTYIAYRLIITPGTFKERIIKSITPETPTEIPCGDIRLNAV
Method: as §1, §2

Adrenergic β2 = Adrenergic β2 (Homo sapiens, UniProt P07550); assay: Promiscuity screening panel, radiometric binding; settings: read-out: % inhibition at 10 µM (n=2)
Adrenergic β2, sequence (P07550 whole entry): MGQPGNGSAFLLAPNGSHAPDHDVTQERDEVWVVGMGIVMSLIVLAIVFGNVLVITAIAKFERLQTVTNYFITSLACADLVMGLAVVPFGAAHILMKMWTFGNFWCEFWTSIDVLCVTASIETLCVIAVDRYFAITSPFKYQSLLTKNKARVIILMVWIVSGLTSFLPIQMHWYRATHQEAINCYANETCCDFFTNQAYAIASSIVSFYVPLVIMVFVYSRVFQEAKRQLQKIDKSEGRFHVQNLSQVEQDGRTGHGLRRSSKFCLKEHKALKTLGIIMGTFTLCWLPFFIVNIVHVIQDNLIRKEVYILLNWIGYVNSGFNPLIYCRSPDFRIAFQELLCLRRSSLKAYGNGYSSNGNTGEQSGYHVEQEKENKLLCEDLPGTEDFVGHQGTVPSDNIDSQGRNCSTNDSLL
Method: as §1, §2

Calcium Channel CaV1.2 = Calcium Channel CaV1.2 (Homo sapiens, UniProt Q13936); assay: Promiscuity screening panel, radiometric binding; settings: read-out: % inhibition at 10 µM (n=2)
Method: as §1, §2

Opiate μ (OP3, MOP) = Opiate μ (OP3, MOP) (Homo sapiens, UniProt P35372); assay: Promiscuity screening panel, radiometric binding; settings: read-out: % inhibition at 10 µM (n=2)
Opiate μ (OP3, MOP), sequence (P35372 whole entry): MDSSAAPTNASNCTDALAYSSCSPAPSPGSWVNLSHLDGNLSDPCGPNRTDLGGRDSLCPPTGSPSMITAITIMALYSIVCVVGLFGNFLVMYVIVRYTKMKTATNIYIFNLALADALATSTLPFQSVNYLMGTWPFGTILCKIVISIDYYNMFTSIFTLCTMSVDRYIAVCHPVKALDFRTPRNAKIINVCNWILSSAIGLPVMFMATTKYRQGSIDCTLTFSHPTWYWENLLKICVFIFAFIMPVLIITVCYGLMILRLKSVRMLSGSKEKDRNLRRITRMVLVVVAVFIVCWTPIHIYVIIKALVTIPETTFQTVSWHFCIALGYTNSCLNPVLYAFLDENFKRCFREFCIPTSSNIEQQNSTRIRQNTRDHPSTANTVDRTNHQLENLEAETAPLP
Method: as §1, §2

Histamine H1 = Histamine H1 (Homo sapiens, UniProt P35367); assay: Promiscuity screening panel, radiometric binding; settings: read-out: % inhibition at 10 µM (n=2)
Histamine H1, sequence (P35367 whole entry): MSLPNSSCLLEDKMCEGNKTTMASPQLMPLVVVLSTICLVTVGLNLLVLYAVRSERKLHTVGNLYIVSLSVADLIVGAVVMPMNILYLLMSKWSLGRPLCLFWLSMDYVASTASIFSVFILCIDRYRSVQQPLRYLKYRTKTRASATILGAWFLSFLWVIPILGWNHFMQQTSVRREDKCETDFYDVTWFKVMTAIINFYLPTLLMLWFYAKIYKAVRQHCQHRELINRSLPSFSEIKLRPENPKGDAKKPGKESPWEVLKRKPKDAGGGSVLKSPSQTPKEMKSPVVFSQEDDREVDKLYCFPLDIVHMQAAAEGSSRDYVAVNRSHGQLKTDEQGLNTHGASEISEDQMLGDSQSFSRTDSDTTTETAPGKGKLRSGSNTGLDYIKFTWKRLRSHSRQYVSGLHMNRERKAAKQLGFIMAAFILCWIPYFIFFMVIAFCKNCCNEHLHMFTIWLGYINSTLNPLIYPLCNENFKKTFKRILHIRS
Method: as §1, §2

[4] = biological target: Serotonin (5-Hydroxytryptamine) 5-HT2B (Homo sapiens, UniProt P41595); assay: Promiscuity screening panel, radiometric binding; settings: read-out: % inhibition at 10 µM (n=2)
Method: as §1, §2

Cannabinoid CB1 = Cannabinoid CB1 (Homo sapiens, UniProt P21554); assay: Promiscuity screening panel, radiometric binding; settings: read-out: % inhibition at 10 µM (n=2)
Cannabinoid CB1, sequence (P21554 whole entry): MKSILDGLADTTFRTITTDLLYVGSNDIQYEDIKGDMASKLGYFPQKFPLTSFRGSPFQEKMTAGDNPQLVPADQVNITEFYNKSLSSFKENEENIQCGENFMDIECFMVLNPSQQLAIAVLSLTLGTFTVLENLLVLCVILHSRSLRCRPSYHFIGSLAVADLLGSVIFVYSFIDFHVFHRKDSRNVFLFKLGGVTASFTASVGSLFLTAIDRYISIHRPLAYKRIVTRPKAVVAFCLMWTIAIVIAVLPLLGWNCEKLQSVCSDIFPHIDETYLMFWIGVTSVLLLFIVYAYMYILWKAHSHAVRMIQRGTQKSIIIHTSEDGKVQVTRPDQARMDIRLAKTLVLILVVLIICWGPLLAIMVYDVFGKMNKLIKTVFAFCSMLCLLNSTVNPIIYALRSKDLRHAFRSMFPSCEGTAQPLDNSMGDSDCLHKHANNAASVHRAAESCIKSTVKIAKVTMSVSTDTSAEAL
Method: as §1, §2

Phosphodiesterase PDE3 = assay: Promiscuity screening panel, radiometric binding; settings: Phosphodiesterase PDE3, Human
Method: as §1, §2

Muscarinic M1 = Muscarinic M1 (Homo sapiens, UniProt P11229); assay: Promiscuity screening panel, radiometric binding; settings: read-out: % inhibition at 10 µM (n=2)
Muscarinic M1, sequence (P11229 whole entry): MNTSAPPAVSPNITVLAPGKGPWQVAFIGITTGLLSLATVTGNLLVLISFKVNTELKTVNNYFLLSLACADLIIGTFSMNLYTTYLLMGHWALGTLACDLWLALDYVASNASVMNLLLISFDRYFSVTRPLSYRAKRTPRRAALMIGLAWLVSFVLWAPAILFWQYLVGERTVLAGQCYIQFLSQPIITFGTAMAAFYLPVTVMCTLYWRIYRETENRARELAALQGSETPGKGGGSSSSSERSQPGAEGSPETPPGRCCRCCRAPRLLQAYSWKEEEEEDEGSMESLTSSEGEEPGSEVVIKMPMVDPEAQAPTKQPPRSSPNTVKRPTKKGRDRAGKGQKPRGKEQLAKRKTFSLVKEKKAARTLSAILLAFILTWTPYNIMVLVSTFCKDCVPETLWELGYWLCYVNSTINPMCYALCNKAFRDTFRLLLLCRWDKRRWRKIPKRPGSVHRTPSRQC
Method: as §1, §2

Androgen (Testosterone) = Androgen (Testosterone) (Homo sapiens, UniProt P10275); assay: Promiscuity screening panel, radiometric binding; settings: read-out: % inhibition at 10 µM (n=2)
Androgen (Testosterone), sequence (P10275 whole entry): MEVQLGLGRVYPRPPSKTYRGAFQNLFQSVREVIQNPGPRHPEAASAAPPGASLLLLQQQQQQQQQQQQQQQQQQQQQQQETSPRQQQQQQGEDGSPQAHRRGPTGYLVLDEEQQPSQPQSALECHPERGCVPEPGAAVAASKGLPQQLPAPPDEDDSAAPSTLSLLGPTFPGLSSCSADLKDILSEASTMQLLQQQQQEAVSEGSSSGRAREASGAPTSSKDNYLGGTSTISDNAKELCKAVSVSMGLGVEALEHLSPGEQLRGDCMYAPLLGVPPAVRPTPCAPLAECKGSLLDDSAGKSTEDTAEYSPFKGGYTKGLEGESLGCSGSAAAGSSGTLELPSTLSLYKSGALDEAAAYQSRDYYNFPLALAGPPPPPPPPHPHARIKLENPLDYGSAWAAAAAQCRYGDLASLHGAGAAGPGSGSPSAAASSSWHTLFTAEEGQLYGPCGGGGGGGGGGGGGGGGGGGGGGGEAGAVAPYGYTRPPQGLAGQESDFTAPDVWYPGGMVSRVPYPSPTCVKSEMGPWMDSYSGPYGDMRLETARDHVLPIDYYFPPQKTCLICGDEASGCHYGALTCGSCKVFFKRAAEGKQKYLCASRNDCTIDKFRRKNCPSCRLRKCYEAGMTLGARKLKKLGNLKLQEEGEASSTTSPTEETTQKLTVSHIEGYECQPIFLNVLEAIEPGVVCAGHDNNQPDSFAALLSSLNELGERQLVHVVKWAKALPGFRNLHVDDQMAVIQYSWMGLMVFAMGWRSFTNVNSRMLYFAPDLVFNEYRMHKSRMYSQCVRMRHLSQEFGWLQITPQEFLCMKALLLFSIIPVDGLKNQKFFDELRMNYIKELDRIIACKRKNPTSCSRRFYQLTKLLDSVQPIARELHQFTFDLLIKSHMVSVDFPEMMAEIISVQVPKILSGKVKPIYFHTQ
Method: as §1, §2

Dopamine D1 = Dopamine D1 (Homo sapiens, UniProt P21728); assay: Promiscuity screening panel, radiometric binding; settings: read-out: % inhibition at 10 µM (n=2)
Dopamine D1, sequence (P21728 whole entry): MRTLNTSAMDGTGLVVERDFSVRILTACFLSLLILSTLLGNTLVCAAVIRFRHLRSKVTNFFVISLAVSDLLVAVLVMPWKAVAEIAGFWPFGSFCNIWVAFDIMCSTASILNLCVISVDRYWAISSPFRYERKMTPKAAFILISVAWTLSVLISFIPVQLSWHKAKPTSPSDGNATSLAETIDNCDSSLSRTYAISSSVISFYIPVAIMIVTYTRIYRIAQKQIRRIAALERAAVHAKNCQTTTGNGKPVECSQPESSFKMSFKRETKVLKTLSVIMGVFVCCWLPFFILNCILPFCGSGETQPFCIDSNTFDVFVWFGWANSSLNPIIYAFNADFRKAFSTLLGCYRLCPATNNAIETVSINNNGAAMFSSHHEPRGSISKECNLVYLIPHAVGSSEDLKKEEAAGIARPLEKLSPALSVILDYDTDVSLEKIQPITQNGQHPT
Method: as §1, §2

[5] = system: Adrenergic α1, Non-Selective; assay: Promiscuity screening panel, radiometric binding; settings: Rat
Method: as §1, §2

Sodium Channel, Site 2 = assay: Promiscuity screening panel, radiometric binding; settings: Site 2, Rat
Method: as §1, §2

[6] = system: Calcium Channel L-Type, Benzothiazepine; assay: Promiscuity screening panel, radiometric binding; settings: Rat
Method: as §1, §2

[7] = system: GABAA, Flunitrazepam, Central; assay: Promiscuity screening panel, radiometric binding; settings: Rat
Method: as §1, §2

Cannabinoid CB2 = Cannabinoid CB2 (Homo sapiens, UniProt P34972); assay: Promiscuity screening panel, radiometric binding; settings: read-out: % inhibition at 10 µM (n=2)
Cannabinoid CB2, sequence (P34972 whole entry): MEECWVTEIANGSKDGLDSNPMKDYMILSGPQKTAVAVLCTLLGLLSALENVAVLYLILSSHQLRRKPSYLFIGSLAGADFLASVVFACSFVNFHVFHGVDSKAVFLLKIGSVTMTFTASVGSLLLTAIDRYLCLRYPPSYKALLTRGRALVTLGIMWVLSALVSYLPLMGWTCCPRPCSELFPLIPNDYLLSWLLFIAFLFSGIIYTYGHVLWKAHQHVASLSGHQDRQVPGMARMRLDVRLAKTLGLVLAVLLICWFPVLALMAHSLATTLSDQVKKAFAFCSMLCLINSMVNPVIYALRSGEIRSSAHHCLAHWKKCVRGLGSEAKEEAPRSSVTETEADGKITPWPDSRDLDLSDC
Method: as §1, §2

`Nc1nonc1-c1nc2ccccc2n1Cc1ccncc1` [C101248] showed a Kp (CNS PK study in rats) of 0.55 to 0.95, a pIC50 [1] of 6.87 and an inhibition at 10 µM [2] of 23%. For the same compound, the inhibition at 10 µM [3] was -7%, the inhibition at 10 µM (Adrenergic β2) was 15% and the inhibition at 10 µM (Calcium Channel CaV1.2) was 12%. For the same compound, the inhibition at 10 µM (Opiate μ (OP3, MOP)) was -9%, the inhibition at 10 µM (Histamine H1) was 21% and the inhibition at 10 µM [4] was 24%. For the same compound, the inhibition at 10 µM (Cannabinoid CB1) was 22%, the “% inhibition at 10 µM (n=2)” value (Phosphodiesterase PDE3) was 1% and the inhibition at 10 µM (Muscarinic M1) was -3%. For the same compound, the inhibition at 10 µM (Androgen (Testosterone)) was 6%, the inhibition at 10 µM (Dopamine D1) was -1% and the “% inhibition at 10 µM (n=2)” value [5] was 12%. The “% inhibition at 10 µM (n=2)” value (Sodium Channel, Site 2) was 2%, the “% inhibition at 10 µM (n=2)” value [6] was 3% and the “% inhibition at 10 µM (n=2)” value [7] was -9%. For the same compound, the inhibition at 10 µM (Cannabinoid CB2) was 0%.
